Laboratory results reported in patent US7074789B2, “Kinase inhibitors” (Amgen Inc., priority 1999, dated 2006).

How the values were obtained:
Format in all cases: biochemical
[1] = target: T1, Lck (Homo sapiens, UniProt P06239); experiment: Kinase inhibition assay (33P transfer), Lck; settings: read-out: Lck-1
T1 construct: Kinases are expressed as either kinase domains or full length constructs; made in house
Summary of the method: (§1)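 Radiometric readout: 33P incorporated into surface-bound poly(Glu,Tyr) 4:1 or poly(Arg,Ser) 3:1 is counted by liquid scintillation after a 0.5% phosphoric acid wash. Enzymes were GST or polyHis fusions (kinase domain or full length) from E. coli or High Five insect cells.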

[2] = target: T2, Lyn (Homo sapiens, UniProt P07948); experiment: Kinase inhibition assay (33P transfer), Lyn; settings: Table 6, Lyn-1 kinase inhibition class
T2 construct: Kinases are expressed as either kinase domains or full length constructs; made in house
T2 sequence (P07948 whole entry, species assumed, the tested form may be a part): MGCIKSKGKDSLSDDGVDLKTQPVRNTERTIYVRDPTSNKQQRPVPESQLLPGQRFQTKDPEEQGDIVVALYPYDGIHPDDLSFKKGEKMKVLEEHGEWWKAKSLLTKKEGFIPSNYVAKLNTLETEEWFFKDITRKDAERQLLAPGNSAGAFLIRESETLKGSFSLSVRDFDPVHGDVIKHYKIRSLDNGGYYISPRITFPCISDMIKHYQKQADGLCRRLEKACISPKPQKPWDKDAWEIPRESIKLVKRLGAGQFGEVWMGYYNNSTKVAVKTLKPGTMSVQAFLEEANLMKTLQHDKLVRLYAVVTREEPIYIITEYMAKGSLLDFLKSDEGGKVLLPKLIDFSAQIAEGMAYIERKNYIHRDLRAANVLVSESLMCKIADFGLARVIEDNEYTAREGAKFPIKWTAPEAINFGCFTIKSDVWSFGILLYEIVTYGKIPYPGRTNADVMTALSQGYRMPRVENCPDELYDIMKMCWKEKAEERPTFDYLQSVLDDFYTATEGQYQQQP
Summary of the method: (§2)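 Steps: coat wells with poly(Glu,Tyr) 4:1 or poly(Arg,Ser) 3:1; add purified kinase, [33P]ATP and inhibitor; incubate; wash with 0.5% phosphoric acid; add liquid scintillant; count. IC50 corresponds to half-maximal reduction of bound 33P.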

[3] = target: T3, Src (Homo sapiens, UniProt P12931); experiment: Kinase inhibition assay (33P transfer), Src; settings: Table 6, Src-1 kinase inhibition class
T3 construct: Kinases are expressed as either kinase domains or full length constructs; made in house
Summary of the method: as §2

[4] = target: T4, Fyn (Homo sapiens, UniProt P06241); experiment: Kinase inhibition assay (33P transfer), Fyn; settings: read-out: Fyn-1
T4 construct: Kinases are expressed as either kinase domains or full length constructs; made in house
T4 sequence (P06241 whole entry, species assumed, the tested form may be a part): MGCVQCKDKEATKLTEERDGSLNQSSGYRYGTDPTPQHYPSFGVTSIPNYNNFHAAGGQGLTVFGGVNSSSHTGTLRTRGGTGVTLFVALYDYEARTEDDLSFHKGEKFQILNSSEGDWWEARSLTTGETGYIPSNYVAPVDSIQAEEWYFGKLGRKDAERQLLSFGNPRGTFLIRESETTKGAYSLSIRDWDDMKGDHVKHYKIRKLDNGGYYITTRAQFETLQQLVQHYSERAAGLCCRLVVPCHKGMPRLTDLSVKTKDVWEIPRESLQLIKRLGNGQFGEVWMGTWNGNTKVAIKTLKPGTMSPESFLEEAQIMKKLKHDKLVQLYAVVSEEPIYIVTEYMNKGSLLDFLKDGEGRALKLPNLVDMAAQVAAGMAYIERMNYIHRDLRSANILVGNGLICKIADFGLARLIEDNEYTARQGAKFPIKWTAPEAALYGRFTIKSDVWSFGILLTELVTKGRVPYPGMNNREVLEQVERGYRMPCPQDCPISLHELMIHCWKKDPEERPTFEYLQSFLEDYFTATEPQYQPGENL
Summary of the method: as §2

[5] = target: T5, Zap-70 (Homo sapiens, UniProt P43403); experiment: Kinase inhibition assay (33P transfer), Zap-70; settings: read-out: Zap-1
T5 construct: Kinases are expressed as either kinase domains or full length constructs; made in house
T5 sequence (P43403 1-619): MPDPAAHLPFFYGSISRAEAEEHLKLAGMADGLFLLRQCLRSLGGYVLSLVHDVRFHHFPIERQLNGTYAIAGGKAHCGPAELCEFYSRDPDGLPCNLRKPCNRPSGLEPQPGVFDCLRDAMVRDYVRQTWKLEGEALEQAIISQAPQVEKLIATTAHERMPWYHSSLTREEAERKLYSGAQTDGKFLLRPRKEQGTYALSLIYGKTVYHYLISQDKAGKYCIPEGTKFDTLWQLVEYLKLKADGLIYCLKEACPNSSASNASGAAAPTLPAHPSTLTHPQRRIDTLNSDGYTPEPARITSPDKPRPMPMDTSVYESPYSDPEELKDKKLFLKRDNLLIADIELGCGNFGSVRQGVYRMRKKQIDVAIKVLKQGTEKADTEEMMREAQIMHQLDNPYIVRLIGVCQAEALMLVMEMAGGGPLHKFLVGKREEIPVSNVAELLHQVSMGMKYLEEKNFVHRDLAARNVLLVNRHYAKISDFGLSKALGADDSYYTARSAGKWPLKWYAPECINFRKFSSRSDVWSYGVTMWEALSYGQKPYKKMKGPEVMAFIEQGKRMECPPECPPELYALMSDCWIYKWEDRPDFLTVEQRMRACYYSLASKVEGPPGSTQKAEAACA
Summary of the method: as §1

[6] = target: T6, Itk (Homo sapiens, UniProt Q08881); experiment: Kinase inhibition assay (33P transfer), Itk; settings: read-out: Itk-1
T6 construct: Kinases are expressed as either kinase domains or full length constructs; made in house
T6 sequence (Q08881 1-620): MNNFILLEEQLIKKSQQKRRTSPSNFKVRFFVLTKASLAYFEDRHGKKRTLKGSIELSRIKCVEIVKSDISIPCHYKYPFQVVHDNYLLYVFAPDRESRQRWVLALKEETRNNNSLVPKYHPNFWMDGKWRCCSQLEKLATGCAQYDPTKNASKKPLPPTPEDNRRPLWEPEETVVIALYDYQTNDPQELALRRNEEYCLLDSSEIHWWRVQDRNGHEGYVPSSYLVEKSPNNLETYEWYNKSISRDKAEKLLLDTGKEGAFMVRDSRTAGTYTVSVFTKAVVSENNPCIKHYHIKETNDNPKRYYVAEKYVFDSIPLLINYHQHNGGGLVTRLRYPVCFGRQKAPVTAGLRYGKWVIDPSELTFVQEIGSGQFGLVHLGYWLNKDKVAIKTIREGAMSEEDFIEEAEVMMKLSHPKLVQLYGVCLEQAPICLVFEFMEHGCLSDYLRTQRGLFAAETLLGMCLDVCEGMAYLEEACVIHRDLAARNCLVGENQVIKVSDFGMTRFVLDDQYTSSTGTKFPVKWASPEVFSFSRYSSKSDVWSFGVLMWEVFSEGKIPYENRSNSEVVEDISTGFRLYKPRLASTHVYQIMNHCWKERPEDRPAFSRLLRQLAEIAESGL
Summary of the method: as §2

[7] = target: T7, EGFR (Homo sapiens, UniProt P00533); experiment: Kinase inhibition assay (33P transfer), EGFR; settings: Table 2, kinase inhibition class; read-out: EGFR-1
T7 construct: Kinases are expressed as either kinase domains or full length constructs; made in house
Summary of the method: as §2

[8] = target: T8, ErbB2 (Homo sapiens, UniProt P04626); experiment: Kinase inhibition assay (33P transfer), ErbB2; settings: read-out: ErbB2-2
T8 construct: Kinases are expressed as either kinase domains or full length constructs; made in house
Summary of the method: as §2

[9] = target: T9, Kdr (Homo sapiens, UniProt P35968); experiment: Kinase inhibition assay (33P transfer), Kdr; settings: read-out: KDR-1
T9 construct: Kinases are expressed as either kinase domains or full length constructs; made in house
Summary of the method: as §1

[10] = target: T10, Flt-1 (Homo sapiens, UniProt P17948); experiment: Kinase inhibition assay (33P transfer), Flt-1
T10 construct: Kinases are expressed as either kinase domains or full length constructs; made in house
T10 sequence (P17948 27-1338, species assumed): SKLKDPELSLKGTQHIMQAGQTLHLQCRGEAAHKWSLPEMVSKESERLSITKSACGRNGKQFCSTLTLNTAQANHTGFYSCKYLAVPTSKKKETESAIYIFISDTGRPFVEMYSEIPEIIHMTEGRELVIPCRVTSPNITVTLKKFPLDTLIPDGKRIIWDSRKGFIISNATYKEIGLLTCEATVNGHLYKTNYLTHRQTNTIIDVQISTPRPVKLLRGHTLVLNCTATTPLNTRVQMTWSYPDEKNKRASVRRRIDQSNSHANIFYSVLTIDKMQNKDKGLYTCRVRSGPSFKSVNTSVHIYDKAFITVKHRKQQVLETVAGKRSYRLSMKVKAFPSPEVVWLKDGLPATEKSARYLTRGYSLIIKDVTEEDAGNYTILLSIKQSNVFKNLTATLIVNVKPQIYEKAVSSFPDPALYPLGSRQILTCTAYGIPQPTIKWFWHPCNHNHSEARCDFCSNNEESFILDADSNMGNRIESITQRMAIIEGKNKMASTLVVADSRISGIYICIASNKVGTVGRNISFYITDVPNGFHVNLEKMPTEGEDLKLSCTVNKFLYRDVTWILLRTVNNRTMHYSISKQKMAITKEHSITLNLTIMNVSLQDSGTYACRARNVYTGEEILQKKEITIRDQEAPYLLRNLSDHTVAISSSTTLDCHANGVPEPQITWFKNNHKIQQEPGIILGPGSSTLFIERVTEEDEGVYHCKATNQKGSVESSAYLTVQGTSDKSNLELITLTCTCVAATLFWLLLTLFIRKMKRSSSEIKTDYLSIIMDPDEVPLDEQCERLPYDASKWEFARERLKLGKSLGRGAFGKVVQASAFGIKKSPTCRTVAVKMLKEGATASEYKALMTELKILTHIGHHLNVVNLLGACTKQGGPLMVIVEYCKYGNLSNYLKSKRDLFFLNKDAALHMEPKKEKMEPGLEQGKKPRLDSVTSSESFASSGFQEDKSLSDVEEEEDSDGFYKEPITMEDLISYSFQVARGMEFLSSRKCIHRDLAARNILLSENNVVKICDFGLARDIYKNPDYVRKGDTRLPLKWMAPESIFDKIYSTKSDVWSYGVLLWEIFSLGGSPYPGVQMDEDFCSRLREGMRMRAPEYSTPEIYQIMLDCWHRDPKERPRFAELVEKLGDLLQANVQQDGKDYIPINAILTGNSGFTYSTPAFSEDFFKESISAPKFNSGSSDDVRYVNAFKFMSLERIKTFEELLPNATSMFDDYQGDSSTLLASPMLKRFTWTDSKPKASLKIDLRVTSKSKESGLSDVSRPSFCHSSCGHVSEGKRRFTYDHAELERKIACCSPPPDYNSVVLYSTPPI
Summary of the method: as §2

[11] = target: T11, Tek (Homo sapiens, UniProt Q02763); experiment: Kinase inhibition assay (33P transfer), Tek; settings: read-out: Tek-1
T11 construct: Kinases are expressed as either kinase domains or full length constructs; made in house
Summary of the method: as §2

[12] = target: T12, c-Met (Homo sapiens, UniProt P08581); experiment: Kinase inhibition assay (33P transfer), c-Met; settings: Table 2, kinase inhibition class; read-out: Met-1
T12 construct: Kinases are expressed as either kinase domains or full length constructs; made in house
T12 sequence (P08581 25-1390): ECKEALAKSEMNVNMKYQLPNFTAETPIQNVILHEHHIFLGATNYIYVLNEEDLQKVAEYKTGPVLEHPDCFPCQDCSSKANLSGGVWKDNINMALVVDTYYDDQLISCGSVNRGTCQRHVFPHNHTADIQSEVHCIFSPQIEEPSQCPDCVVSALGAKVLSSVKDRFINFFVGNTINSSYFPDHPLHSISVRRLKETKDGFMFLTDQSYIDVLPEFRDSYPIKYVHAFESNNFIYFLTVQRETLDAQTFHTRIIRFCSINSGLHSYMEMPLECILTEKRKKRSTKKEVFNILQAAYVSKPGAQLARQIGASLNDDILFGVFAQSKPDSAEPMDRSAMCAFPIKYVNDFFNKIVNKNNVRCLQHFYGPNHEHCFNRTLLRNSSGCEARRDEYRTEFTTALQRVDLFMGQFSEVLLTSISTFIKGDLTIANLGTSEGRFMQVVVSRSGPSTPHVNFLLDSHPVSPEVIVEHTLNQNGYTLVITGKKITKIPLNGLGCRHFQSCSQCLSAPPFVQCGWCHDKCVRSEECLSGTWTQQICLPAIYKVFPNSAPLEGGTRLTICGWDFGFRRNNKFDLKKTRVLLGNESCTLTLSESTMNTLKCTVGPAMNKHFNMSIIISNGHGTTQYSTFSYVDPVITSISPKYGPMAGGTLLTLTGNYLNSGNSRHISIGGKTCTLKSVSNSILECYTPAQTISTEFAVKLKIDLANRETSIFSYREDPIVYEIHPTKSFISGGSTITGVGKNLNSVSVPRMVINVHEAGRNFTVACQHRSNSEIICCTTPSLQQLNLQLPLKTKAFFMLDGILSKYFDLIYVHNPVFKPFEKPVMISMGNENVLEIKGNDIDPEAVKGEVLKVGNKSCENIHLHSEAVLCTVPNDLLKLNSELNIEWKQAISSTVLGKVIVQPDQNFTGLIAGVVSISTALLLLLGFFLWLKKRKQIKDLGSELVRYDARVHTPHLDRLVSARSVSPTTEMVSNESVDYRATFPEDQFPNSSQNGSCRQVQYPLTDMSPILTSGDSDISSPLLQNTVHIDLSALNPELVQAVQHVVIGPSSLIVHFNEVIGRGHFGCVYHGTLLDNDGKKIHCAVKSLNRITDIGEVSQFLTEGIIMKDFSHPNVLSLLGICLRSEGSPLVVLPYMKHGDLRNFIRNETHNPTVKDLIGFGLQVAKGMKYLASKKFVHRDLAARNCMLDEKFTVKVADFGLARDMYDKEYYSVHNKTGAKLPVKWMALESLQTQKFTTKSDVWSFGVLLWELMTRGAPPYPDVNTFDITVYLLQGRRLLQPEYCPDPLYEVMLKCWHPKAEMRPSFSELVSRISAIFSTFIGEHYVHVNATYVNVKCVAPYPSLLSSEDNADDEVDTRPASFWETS
Summary of the method: as §2

[13] = target: T13, AKT (Homo sapiens, UniProt Q9Y243); experiment: Kinase inhibition assay (33P transfer), AKT; settings: Table 2, kinase inhibition class; read-out: AKT3-1
T13 construct: Kinases are expressed as either kinase domains or full length constructs; made in house
Summary of the method: as §1

[14] = target: T14, IGFR-1 (Homo sapiens, UniProt P08069); experiment: Kinase inhibition assay, IGFR-1 (Table 2); settings: Table 2, kinase inhibition class
T14 construct: Kinases are expressed as either kinase domains or full length constructs; made in house
T14 sequence (P08069 31-1367): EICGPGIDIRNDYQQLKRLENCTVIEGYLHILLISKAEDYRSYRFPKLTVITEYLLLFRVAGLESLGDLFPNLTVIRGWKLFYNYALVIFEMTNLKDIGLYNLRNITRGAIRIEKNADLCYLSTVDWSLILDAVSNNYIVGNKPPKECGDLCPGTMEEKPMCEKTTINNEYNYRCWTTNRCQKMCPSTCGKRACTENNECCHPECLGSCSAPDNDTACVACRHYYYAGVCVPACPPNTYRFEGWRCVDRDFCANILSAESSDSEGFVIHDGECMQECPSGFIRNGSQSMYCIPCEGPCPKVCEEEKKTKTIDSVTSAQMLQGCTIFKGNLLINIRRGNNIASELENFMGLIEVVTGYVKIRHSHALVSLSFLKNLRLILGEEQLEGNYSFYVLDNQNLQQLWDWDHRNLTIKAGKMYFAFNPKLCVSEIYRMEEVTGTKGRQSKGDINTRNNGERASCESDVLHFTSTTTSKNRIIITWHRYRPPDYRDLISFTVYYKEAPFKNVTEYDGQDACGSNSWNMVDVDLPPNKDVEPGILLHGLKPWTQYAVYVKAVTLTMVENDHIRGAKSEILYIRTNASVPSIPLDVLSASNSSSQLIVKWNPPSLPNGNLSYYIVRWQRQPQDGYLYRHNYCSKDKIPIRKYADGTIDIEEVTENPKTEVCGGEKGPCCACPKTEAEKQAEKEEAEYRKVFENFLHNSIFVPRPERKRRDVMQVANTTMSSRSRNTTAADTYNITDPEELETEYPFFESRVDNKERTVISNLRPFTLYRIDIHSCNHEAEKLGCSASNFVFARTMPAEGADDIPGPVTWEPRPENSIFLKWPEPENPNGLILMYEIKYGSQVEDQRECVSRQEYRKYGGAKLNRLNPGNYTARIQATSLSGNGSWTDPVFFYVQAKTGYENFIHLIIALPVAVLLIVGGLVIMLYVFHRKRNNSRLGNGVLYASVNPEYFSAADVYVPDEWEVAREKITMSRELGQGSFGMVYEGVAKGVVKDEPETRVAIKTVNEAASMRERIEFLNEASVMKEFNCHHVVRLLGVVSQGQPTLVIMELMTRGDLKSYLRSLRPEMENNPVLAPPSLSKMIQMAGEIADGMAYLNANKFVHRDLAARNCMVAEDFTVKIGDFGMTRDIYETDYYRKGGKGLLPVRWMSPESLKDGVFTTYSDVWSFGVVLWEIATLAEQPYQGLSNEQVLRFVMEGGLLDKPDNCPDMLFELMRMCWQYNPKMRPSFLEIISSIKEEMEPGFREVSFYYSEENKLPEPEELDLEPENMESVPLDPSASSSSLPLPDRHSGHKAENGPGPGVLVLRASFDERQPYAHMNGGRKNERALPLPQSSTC

[15] = target: T15, PDGFRB (Homo sapiens, UniProt P09619); experiment: Kinase inhibition assay (33P transfer), PDGFRB; settings: read-out: PDGFRB-1
T15 construct: Kinases are expressed as either kinase domains or full length constructs; made in house

[16] = target: T16, Hck-1 (Homo sapiens, UniProt P08631); experiment: Kinase inhibition assay (33P transfer), Hck; settings: Table 6, Hck-1 kinase inhibition class
T16 construct: Kinases are expressed as either kinase domains or full length constructs; made in house

[17] = target: T17, ErbB4 (Homo sapiens, UniProt Q15303); experiment: Kinase inhibition assay (33P transfer), ErbB4; settings: read-out: ErbB4-1
T17 construct: Kinases are expressed as either kinase domains or full length constructs; made in house

[18] = target: T18, Ret-1 (Homo sapiens, UniProt P07949); experiment: Kinase inhibition assay (33P transfer), Ret; settings: Table 6, Ret-1 kinase inhibition class
T18 construct: Kinases are expressed as either kinase domains or full length constructs; made in house

[19] = target: T19, FGFR1 (Homo sapiens, UniProt P11362); experiment: Kinase inhibition assay (33P transfer), FGFR1; settings: read-out: FGFR1-1
T19 construct: Kinases are expressed as either kinase domains or full length constructs; made in house

Structure (SMILES)	IC50 [1] [µM]	IC50 [2] [µM]	IC50 [3] [µM]	IC50 [4] [µM]	IC50 [5] [µM]	IC50 [6] [µM]	IC50 [7] [µM]	IC50 [8] [µM]	IC50 [9] [µM]	IC50 [10] [µM]	IC50 [11] [µM]	IC50 [12] [µM]	IC50 [13] [µM]	IC50 [14] [µM]	IC50 [15] [µM]	IC50 [16] [µM]	IC50 [17] [µM]	IC50 [18] [µM]	IC50 [19] [µM]
COc1ccc(Nc2ncccc2-c2ncnc(Nc3cc(OC)c(OC)c(OC)c3)n2)c(C)c1 [Compound 1086]	5.06 to 7.38	> 9.48	> 9.48	> 9.48	> 9.48	> 9.48	> 9.48	7.38 to 9.48	< 0.843	5.06 to 7.38	7.38 to 9.48	> 9.48	> 9.48	> 9.48	> 9.48	> 9.48	> 9.48	7.38 to 9.48	> 9.48
COc1cc(Nc2ncnc(-c3cccnc3NCc3ccccc3F)n2)cc(OC)c1OC [Compound 1087]	5.19 to 7.57	> 9.73	> 9.73	> 9.73	> 9.73	> 9.73	> 9.73	> 9.73	0.865 to 5.19	> 9.73	> 9.73	> 9.73	> 9.73	> 9.73	5.19 to 7.57	> 9.73	> 9.73	0.865 to 5.19	7.57 to 9.73
COc1cc(Nc2ncnc(-c3cccnc3NCc3ccc(F)cc3)n2)cc(OC)c1OC [Compound 1088]	5.19 to 7.57	> 9.73	> 9.73	> 9.73	> 9.73	> 9.73	> 9.73	> 9.73	< 0.865	> 9.73	> 9.73	> 9.73	> 9.73	> 9.73	< 0.865	> 9.73	> 9.73	< 0.865	< 0.865
COc1cc(Nc2ncnc(-c3cccnc3NC(C)C)n2)cc(OC)c1OC [Compound 1089]	< 1.01	< 1.01	1.01 to 6.05	1.01 to 6.05	> 11.4	6.05 to 8.83	> 11.4	> 11.4	< 1.01	> 11.4	> 11.4	> 11.4	> 11.4	> 11.4	< 1.01	> 11.4	> 11.4	< 1.01	> 11.4
